{"source": "patent US20240197897A1", "about": "“HETEROTANDEM BICYCLIC PEPTIDE COMPLEXES” (Bicycle Tx Limited, priority 2021, published 2024)", "molecules": {"B1": {"name": "heterotandem bicyclic peptide complex BCY20793 (peptide)", "peptide 1": "A[hArg]DC[Hyp]LVNPLCLHP[dD]W[hArg]C", "peptide 2": "Ac-CY[Cba]PDYLC[dA]DEYCK(Pent4ynoyl)", "peptide 3": "ACRWHFSEPCGAWCAK(Pent4ynoyl)", "modifications": "linker I:4-I:11-I:18, II:1-II:8-II:13 via TATA; linker III:2-III:10-III:14 via TBMT; also: three peptides joined on N-(PEG3-acid)-N-(PEG3-azide)-N-(PEG3-NH-AcAz) linker (triazole to PYA of chains 2 and 3)"}, "B2": {"name": "heterotandem bicyclic peptide complex BCY15911 (peptide)", "peptide 1": "A[hArg]DC[Hyp]LVNPLCLHP[dD]W[hArg]C", "peptide 2": "ACVGLEELGPCSDLCAK(Pent4ynoyl)", "modifications": "linker I:4-I:11-I:18 via TATA; linker II:2-II:11-II:15 via TBMT; also: EphA2:CD16a 1:2, two copies of chain 2 on the linker, X5, X17: HyP or HArg, linker at chain B 17 to a chain's N-terminus via N-(acid-PEG3)-N-bis(PEG3-azide) linker"}}, "key": {"NK cells": {"system": "NK cells", "experiment": "Degranulation assay (CD107a surface expression on NK cells co-cultured with A549)", "format": "cell-based, human", "conditions": "for upregulation of CD107a on NK cell surface: NK cells with A549 cells, post-treatment, FIG. 1", "protocol": "Tumor cells can be recognized and killed by CD8+T-cytotoxic and NK cells through the immune secretion of lytic granules that kill target cells. This process involves the fusion of the granule membrane with the cytoplasmic membrane of the immune effector cell, resulting in surface exposure of CD107a (LAMP1). Membrane expression of CD107a constitutes a marker of immune cell activation and cytotoxic degranulation. EphA2/NKp46 or EphA2/CD16a heterotandem bicyclic peptide complexes were evaluated for activation of NK cells using a degranulation assay.\nOn the day of the experiment, medium was prepared by supplementing RPMI-1640 (Gibco™ 11875-093; with L-glutamine) with 10% heat-inactivated fetal bovine serum (FBS; Corning® 35-011-CV), 10 mM HEPES (Gibco™ 15-630-080), and 1% Penicillin Streptomycin (Corning™ 30-002-CI), herein referred to as working medium. Previously isolated human peripheral blood mononuclear cells (PBMCs), from whole blood, were quick thawed in a water bath and washed once at 500 rpm for 5 minutes in 10 mL of prewarmed working medium. PBMC pellet was then resuspended to concentration of 5×10^6 cells/mL in working medium and rested overnight (12-18 hours) horizontally in a tissue-culture coated flask (T-183; CELLTREAT Scientific 229351). Moreover, Ephrin type-A receptor (EphA2) expressing human lung carcinoma cell line A549 (ATCCR CCL-185; cells were grown and maintained according to manufacturer's recommendation) were detached from the culture vessel using Trypsin/EDTA and washed once at 500 rpm for 5 minutes in 15 mL of prewarmed working medium. Cell pellet was then resuspended in working medium at a concentration of 1×10^5 cells/mL. Subsequently, 100 μL of cell suspension was plated in a flat-bottom tissue-culture coated 96-well plate (Greiner CellStar® 655180) and rested overnight (12-18 hours).\nPost-overnight incubation, PBMCs were removed from the flask and washed once at 500 rpm for 5 minutes in 10 mL of prewarmed working medium. […]"}, "[1]": {"experiment": "NK cytotoxicity assay (NK:HT1080-luc co-culture, luciferase readout)", "format": "cell-based, human", "conditions": "NK:HT1080-luc co-culture, 24 hours, four-parameter logistic regression; FIGS. 2-4, 6-8, 10; read-out: EC50 NK cytotoxicity (tumor cell killing)", "protocol": "(§1) Heterotandem bicyclic peptide complexes were evaluated for NK functional readouts (cytotoxicity and cytokine secretion) in NK-tumor cell line co-cultures.\n(§2) NK cells were isolated using a negative isolation kit (STEMCELL™ Technologies 17955) from the total PBMC population purified from whole blood. NK cell pellet was then resuspended in DMEM medium (Corning™ 10-013-CV) with 10% heat-inactivated fetal bovine serum (FBS; Corning® 35-011-CV), 10 mM HEPES (Gibco™ 15-630-080), and 1% Penicillin Streptomycin (Corning™ 30-002-CI), and 50 IU/mL human IL-2 (Miltenyi Biotec® 130-097-748), at a concentration of 4×10^5 cells/mL. For the NK cell cytotoxicity assays, 50 μL (2×10^4) of cell suspension was plated in the 96-well plate (Grenier® Bio One™ 655090) containing 50 μl (4×10^3) HT1080-luc cells (ATCC® CCL-121-luc2) in DMEM (Gibco™ 11875-093; with L-glutamine) with 10% heat-inactivated fetal bovine serum (FBS; Corning® 35-011-CV), 10 mM HEPES (Gibco™ 15-630-080), and 1% Penicillin Streptomycin (Corning™ 30-002-CI). […] The plates were then incubated for 24 hours at 37° C., 5% CO2. Post-incubation, plates was centrifuged at 250×g for 5 minutes and 100 μl supernatant discarded. Samples were then incubated 10 minutes with 50 μl Bright-Glo™ Luciferase Assay system (Promega™ E2620). Luminescence upon excitation at 570 nm was read using a CLARIOstar® plate-reader with MARS Data Analysis Software™. Data was fit to a four-parameter non-linear regression in GraphPad Prism™ 8.0.2 to generate an EC50 value."}, "HT1080-luc cells": {"system": "HT1080-luc cells", "experiment": "NK cytotoxicity assay (NK:HT1080-luc co-culture, luciferase readout)", "format": "cell-based, human", "conditions": "in comparison to NK:HT1080-luc co-culture without heterotandem complex (NK-TICA)", "protocol": "as §1, §2"}, "[2]": {"biological_target": "FcγRIIIA (also known as CD16a) (human) (UniProt P08637)", "sequence (P08637 17-254)": "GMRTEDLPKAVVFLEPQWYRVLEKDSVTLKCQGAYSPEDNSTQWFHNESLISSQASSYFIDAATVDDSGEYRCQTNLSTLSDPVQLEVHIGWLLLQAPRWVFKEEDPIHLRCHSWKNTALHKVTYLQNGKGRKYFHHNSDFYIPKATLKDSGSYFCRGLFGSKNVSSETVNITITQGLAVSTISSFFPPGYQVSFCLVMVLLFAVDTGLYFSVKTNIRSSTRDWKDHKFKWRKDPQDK", "experiment": "cell-based or functional assay"}, "NKp46 (human)": {"biological_target": "NKp46 (human) (UniProt O76036)", "sequence (O76036 22-304)": "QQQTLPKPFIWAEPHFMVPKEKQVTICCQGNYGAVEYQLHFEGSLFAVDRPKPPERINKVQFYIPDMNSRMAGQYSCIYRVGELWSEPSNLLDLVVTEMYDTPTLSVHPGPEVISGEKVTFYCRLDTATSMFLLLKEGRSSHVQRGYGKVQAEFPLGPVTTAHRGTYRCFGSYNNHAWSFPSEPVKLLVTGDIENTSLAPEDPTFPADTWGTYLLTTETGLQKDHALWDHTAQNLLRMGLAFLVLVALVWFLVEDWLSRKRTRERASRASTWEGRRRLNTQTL", "experiment": "cell-based or functional assay"}, "[3]": {"biological_target": "EPH receptor A2 (ephrin type-A receptor 2) (human) (UniProt P29317)", "sequence (P29317 24-976)": "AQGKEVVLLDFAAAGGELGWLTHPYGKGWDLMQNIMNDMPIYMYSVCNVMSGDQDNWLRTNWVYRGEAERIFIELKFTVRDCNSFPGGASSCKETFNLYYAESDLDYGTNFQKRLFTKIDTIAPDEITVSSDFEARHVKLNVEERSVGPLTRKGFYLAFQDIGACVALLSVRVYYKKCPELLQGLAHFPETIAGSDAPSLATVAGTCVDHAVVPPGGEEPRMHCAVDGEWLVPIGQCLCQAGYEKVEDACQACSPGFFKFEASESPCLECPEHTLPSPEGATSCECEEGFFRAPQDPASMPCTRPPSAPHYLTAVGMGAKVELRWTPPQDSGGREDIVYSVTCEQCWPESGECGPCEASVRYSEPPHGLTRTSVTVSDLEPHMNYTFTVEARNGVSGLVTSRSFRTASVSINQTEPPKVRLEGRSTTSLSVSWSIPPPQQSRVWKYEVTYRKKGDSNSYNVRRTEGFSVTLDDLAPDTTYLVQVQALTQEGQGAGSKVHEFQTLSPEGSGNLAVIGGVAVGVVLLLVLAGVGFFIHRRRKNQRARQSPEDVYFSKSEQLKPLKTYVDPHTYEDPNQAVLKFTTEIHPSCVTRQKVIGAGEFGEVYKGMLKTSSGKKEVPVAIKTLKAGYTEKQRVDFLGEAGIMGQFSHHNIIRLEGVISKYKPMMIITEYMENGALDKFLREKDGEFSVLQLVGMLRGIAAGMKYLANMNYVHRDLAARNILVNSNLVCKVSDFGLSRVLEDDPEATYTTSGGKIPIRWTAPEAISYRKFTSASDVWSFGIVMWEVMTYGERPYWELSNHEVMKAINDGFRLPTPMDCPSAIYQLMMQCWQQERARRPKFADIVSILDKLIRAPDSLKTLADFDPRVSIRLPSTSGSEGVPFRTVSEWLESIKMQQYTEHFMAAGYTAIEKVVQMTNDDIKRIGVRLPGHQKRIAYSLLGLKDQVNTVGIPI", "experiment": "cell-based or functional assay"}}, "note": "Starred links: 1 amine or outer side, 2 acyl side, 3 side chain; linkers in the order of their positions; H or OH if unused. Positions of bridges follow the written chain, without caps; N, C: chain ends. Non-standard residues stand in square brackets, D forms with d. Chains are numbered I, II in the order given. No end group written: not given here. *: point of attachment. TBMT = 2,4,6-tris(bromomethyl)-s-triazine, molecular scaffold, C(c1nc(C[*:2])nc(C[*:3])n1)[*:1]; TATA = O=C(CC[*:1])N1CN(C(=O)CC[*:2])CN(C(=O)CC[*:3])C1; Hyp = O=C(O)[C@@H]1C[C@@H](O)CN1; hArg = N=C(N)NCCCC[C@H](N)C(=O)O; Cba = N[C@@H](CC1CCC1)C(=O)O; Pent4ynoyl = C#CCCC(=O)*", "data": [{"molecule": "CC(C)C[C@@H]1NC(=O)[C@H](Cc2ccc(O)cc2)NC(=O)[C@H](CC(=O)O)NC(=O)[C@@H]2CCCN2C(=O)[C@H](CC(C)C)NC(=O)[C@H](Cc2ccc(O)cc2)NC(=O)[C@@H](NC(=O)[C@H](C)N)CSCCC(=O)N2CN3CN(C2)C(=O)CCSC[C@@H](C(=O)N[C@@H](C)C(=O)N[C@H](CCCCNC(=O)CCc2cn(CCOCCOCCOCCN(CCOCCOCCOCCC(=O)N[C@@H](C)C(=O)N[C@@H](CCCCNC(=N)N)C(=O)N[C@@H](CC(=O)O)C(=O)N[C@H]4CSCCC(=O)N5CN6CN(C5)C(=O)CCSC[C@H](NC(=O)[C@H](CC(C)C)NC(=O)[C@@H]5CCCN5C(=O)[C@H](CC(N)=O)NC(=O)[C@H](C(C)C)NC(=O)[C@H](CC(C)C)NC(=O)[C@@H]5C[C@@H](O)CN5C4=O)C(=O)N[C@@H](CC(C)C)C(=O)N[C@@H](Cc4c[nH]cn4)C(=O)N4CCC[C@H]4C(=O)N[C@H](CC(=O)O)C(=O)N[C@@H](Cc4c[nH]c5ccccc45)C(=O)N[C@@H](CCCCNC(=N)N)C(=O)N[C@H](C(N)=O)CSCCC6=O)CCOCCOCCOCCn4cc(CCC(=O)NCCCC[C@@H](NC(=O)[C@H](C)NC(=O)[C@@H]5CSCCC(=O)N6CN7CN(C6)C(=O)CCSC[C@H](NC(=O)[C@H](CC(C)C)NC(=O)[C@H](Cc6ccc(O)cc6)NC(=O)[C@H](CC(=O)O)NC(=O)[C@@H]6CCCN6C(=O)[C@H](CC(C)C)NC(=O)[C@H](Cc6ccc(O)cc6)NC(=O)[C@@H](NC(=O)[C@H](C)N)CSCCC7=O)C(=O)NCC(=O)N[C@@H](CC(=O)O)C(=O)N[C@@H](CCC(=O)O)C(=O)N[C@@H](Cc6ccc(O)cc6)C(=O)N5)C(N)=O)nn4)nn2)C(N)=O)NC(=O)[C@H](Cc2ccc(O)cc2)NC(=O)[C@H](CCC(=O)O)NC(=O)[C@H](CC(=O)O)NC(=O)CNC(=O)[C@H](CSCCC3=O)NC1=O", "note": "[BCY15664]", "values": [{"measurement": "upregulation of CD107a on NK cell surface", "setting": "NK cells", "result": "dose-dependent upregulation of CD107a"}, {"measurement": "EC50", "setting": "[1]", "result": 0.021, "unit": "nM"}, {"measurement": "effect on tumor cell killing by NK cells, in words", "setting": "HT1080-luc cells", "result": "dose-dependent NK cell response to kill"}]}, {"molecule": "BCY15911: EphA2 specific peptide BCY9594 linked to two CD16a specific peptides (BCY13886) via N-(acid-PEG3)-N-bis(PEG3-azide) linker (peptide 1 A[hArg]DC[Hyp]LVNPLCLHP[dD]W[hArg]C; peptide 2 ACVGLEELGPCSDLCAK(Pent4ynoyl); linker I:4-I:11-I:18 via TATA; linker II:2-II:11-II:15 via TBMT; also: chain 1 N-terminus and chain 2 K(PYA) joined through N-(acid-PEG3)-N-bis(PEG3-azide) linker, two copies of chain 2)", "values": [{"measurement": "upregulation of CD107a on NK cell surface", "setting": "NK cells", "result": "dose-dependent upregulation of CD107a"}, {"measurement": "EC50", "setting": "NK cells; NK cells with EphA2 expressing A549 cells, 4 hours, flow cytometry, read-out: EC50 Degranulation Geometric Mean CD107a", "result": 99.8, "unit": "nM"}]}, {"molecule": "B1", "values": [{"measurement": "EC50, NK cytotoxicity assay (HT1080-luc luminescence)", "setting": "[2]", "result": 0.0065, "unit": "nM"}, {"measurement": "EC50, NK cytotoxicity assay (HT1080-luc luminescence)", "setting": "NKp46 (human)", "result": 0.0065, "unit": "nM"}]}, {"molecule": "B2", "values": [{"measurement": "EC50 Degranulation Geometric Mean CD107a", "setting": "[3]", "result": 99.8, "unit": "nM"}, {"measurement": "EC50 Degranulation Geometric Mean CD107a", "setting": "[2]", "result": 99.8, "unit": "nM"}]}]}
